Data from ChEMBL document CHEMBL1136696, “Azalide 3,6-ketals: antibacterial activity and structure-activity relationships of aryl and hetero aryl substituted analogues” (Bioorg Med Chem Lett, 2003).
Converted amounts (≈) assume the structure as drawn.

Key:
Type in all cases: functional
Escherichia coli = test: In vitro antibacterial activity against Escherichia coli 51A0150
Pasteurella multocida = test: In vitro antibacterial activity against Pasteurella multocida 59A0067
Staphylococcus aureus = test: In vitro antibacterial activity against Staphylococcus aureus 01A0758

SMILES	MIC (Escherichia coli) [µg/mL]	MIC (Pasteurella multocida) [µg/mL]	MIC (Staphylococcus aureus) [µg/mL]
CC[C@H]1OC(=O)[C@H](C)[C@H]2OC3(CCN(c4ccc(C(=O)N(C)c5ccncc5)cc4F)CC3)O[C@](C)(C[C@@H](C)CN(C)[C@H](C)[C@@H](O)[C@]1(C)O)[C@H](O[C@@H]1O[C@H](C)CC(N(C)C)[C@H]1O)[C@H]2C (stereo partly drawn)	1.56 (≈ 1.73 µM)	0.2 (≈ 0.222 µM)	3.13 (≈ 3.48 µM)
CC[C@H]1OC(=O)[C@H](C)C2OC3(CCNCC3)O[C@](C)(C[C@@H](C)CN(C)[C@H](C)[C@@H](O)[C@]1(C)O)[C@H](O[C@@H]1O[C@H](C)C[C@H](N(C)C)[C@H]1O)[C@H]2C	0.39 (≈ 0.58 µM)	< 0.05	6.25 (≈ 9.3 µM)
CC[C@H]1OC(=O)[C@H](C)[C@H]2OC3(CCN(c4nccc(C(F)(F)F)n4)CC3)O[C@](C)(C[C@@H](C)CN(C)[C@H](C)[C@@H](O)[C@]1(C)O)[C@H](O[C@@H]1O[C@H](C)CC(N(C)C)[C@H]1O)[C@H]2C (stereo partly drawn)	12.5 (≈ 15.3 µM)	1.56 (≈ 1.91 µM)	6.25 (≈ 7.64 µM)
CCOC(=O)c1ccc(N2CCC3(CC2)O[C@H]2[C@H](C)[C@@H](O[C@@H]4O[C@H](C)CC(N(C)C)[C@H]4O)[C@@](C)(C[C@@H](C)CN[C@H](C)[C@@H](O)[C@](C)(O)[C@@H](CC)OC(=O)[C@@H]2C)O3)nc1 (stereo partly drawn)	50 (≈ 62 µM)	3.13 (≈ 3.88 µM)	6.25 (≈ 7.74 µM)
CC[C@H]1OC(=O)[C@H](C)[C@H]2OC3(CCN(c4ccc(C(=O)OCc5ccccc5)cc4)CC3)O[C@](C)(C[C@@H](C)CN(C)[C@H](C)[C@@H](O)[C@]1(C)O)[C@H](O[C@@H]1O[C@H](C)CC(N(C)C)[C@H]1O)[C@H]2C (stereo partly drawn)	3.13 (≈ 3.55 µM)	0.39 (≈ 0.442 µM)	3.13 (≈ 3.55 µM)
CC[C@H]1OC(=O)[C@H](C)[C@H]2OC3(CCN(c4ccc(NC(=O)c5ccccc5)cc4)CC3)O[C@](C)(C[C@@H](C)CN(C)[C@H](C)[C@@H](O)[C@]1(C)O)[C@H](O[C@@H]1O[C@H](C)CC(N(C)C)[C@H]1O)[C@H]2C (stereo partly drawn)	50 (≈ 57.7 µM)	1.56 (≈ 1.8 µM)	12.5 (≈ 14.4 µM)
CC[C@H]1OC(=O)[C@H](C)[C@H]2OC3(CCN(c4ncccc4[N+](=O)[O-])CC3)O[C@](C)(C[C@@H](C)CN[C@H](C)[C@@H](O)[C@]1(C)O)[C@H](O[C@@H]1O[C@H](C)CC(N(C)C)[C@H]1O)[C@H]2C (stereo partly drawn)	6.25 (≈ 8.01 µM)	0.2 (≈ 0.256 µM)	0.78 (≈ 1 µM)
CC[C@H]1OC(=O)[C@H](C)[C@H]2OC3(CCN(c4cncc(Cl)n4)CC3)O[C@](C)(C[C@@H](C)CN(C)[C@H](C)[C@@H](O)[C@]1(C)O)[C@H](O[C@@H]1O[C@H](C)CC(N(C)C)[C@H]1O)[C@H]2C (stereo partly drawn)	6.25 (≈ 7.97 µM)	0.39 (≈ 0.497 µM)	1.56 (≈ 1.99 µM)
CC[C@H]1OC(=O)[C@H](C)[C@H]2OC3(CCN(c4ccc(C#N)cn4)CC3)O[C@](C)(C[C@@H](C)CN[C@H](C)[C@@H](O)[C@]1(C)O)[C@H](O[C@@H]1O[C@H](C)CC(N(C)C)[C@H]1O)[C@H]2C (stereo partly drawn)	6.25 (≈ 8.22 µM)	0.2 (≈ 0.263 µM)	1.56 (≈ 2.05 µM)
CC[C@H]1OC(=O)[C@H](C)[C@H]2OC3(CCN(c4ccc([N+](=O)[O-])cc4)CC3)O[C@](C)(C[C@@H](C)CN(C)[C@H](C)[C@@H](O)[C@]1(C)O)[C@H](O[C@@H]1O[C@H](C)CC(N(C)C)[C@H]1O)[C@H]2C (stereo partly drawn)	6.25 (≈ 7.88 µM)	0.39 (≈ 0.492 µM)	1.56 (≈ 1.97 µM)
CC[C@H]1OC(=O)[C@H](C)[C@H]2OC3(CCN(c4ccccc4[N+](=O)[O-])CC3)O[C@](C)(C[C@@H](C)CN(C)[C@H](C)[C@@H](O)[C@]1(C)O)[C@H](O[C@@H]1O[C@H](C)CC(N(C)C)[C@H]1O)[C@H]2C (stereo partly drawn)	3.13 (≈ 3.95 µM)	0.39 (≈ 0.492 µM)	1.56 (≈ 1.97 µM)
CC[C@H]1OC(=O)[C@H](C)[C@H]2OC3(CCN(c4ncc(C(=O)NCc5ccncc5)cn4)CC3)O[C@](C)(C[C@@H](C)CN(C)[C@H](C)[C@@H](O)[C@]1(C)O)[C@H](O[C@@H]1O[C@H](C)CC(N(C)C)[C@H]1O)[C@H]2C (stereo partly drawn)	> 50	> 50	3.52 (≈ 3.98 µM)
CC[C@H]1OC(=O)[C@H](C)[C@H]2OC3(CCN(c4ncccn4)CC3)O[C@](C)(C[C@@H](C)CN(C)[C@H](C)[C@@H](O)[C@]1(C)O)[C@H](O[C@@H]1O[C@H](C)CC(N(C)C)[C@H]1O)[C@H]2C (stereo partly drawn)	1.56 (≈ 2.08 µM)	0.1 (≈ 0.133 µM)	1.56 (≈ 2.08 µM)
CC[C@H]1OC(=O)[C@H](C)[C@H]2OC3(CCN(c4nc(C)ccc4C#N)CC3)O[C@](C)(C[C@@H](C)CN[C@H](C)[C@@H](O)[C@]1(C)O)[C@H](O[C@@H]1O[C@H](C)CC(N(C)C)[C@H]1O)[C@H]2C (stereo partly drawn)	6.25 (≈ 8.07 µM)	0.78 (≈ 1.01 µM)	0.78 (≈ 1.01 µM)
CC[C@H]1OC(=O)[C@H](C)[C@H]2OC3(CCN(c4ccc(C(=O)O)c(C(F)(F)F)c4)CC3)O[C@](C)(C[C@@H](C)CN(C)[C@H](C)[C@@H](O)[C@]1(C)O)[C@H](O[C@@H]1O[C@H](C)CC(N(C)C)[C@H]1O)[C@H]2C (stereo partly drawn)	12.5 (≈ 14.5 µM)	3.13 (≈ 3.64 µM)	25 (≈ 29.1 µM)
CC[C@H]1OC(=O)[C@H](C)[C@H]2OC3(CCN(c4ccc(C(F)(F)F)cn4)CC3)O[C@](C)(C[C@@H](C)CN[C@H](C)[C@@H](O)[C@]1(C)O)[C@H](O[C@@H]1O[C@H](C)CC(N(C)C)[C@H]1O)[C@H]2C (stereo partly drawn)	12.5 (≈ 15.6 µM)	0.78 (≈ 0.971 µM)	1.56 (≈ 1.94 µM)
